Laboratory results published in patent publication US7998985B2, “1,5-diphenyl-3-pyridinylamino-1,5-dihydropyrrolidin-2-one as CB1 receptor modulator” (Eli Lilly and Company, priority 2006, dated 2011).

What was measured:
hCB1 = hCB1 (Homo sapiens, UniProt P21554); experiment: Antibody-capture SPA GTP-γ-35S binding, antagonist/inverse agonist mode, human CB1 (CHO membranes); assay type: biochemical; settings: Human CB1 (CHO cells) membranes; vs saturating methanandamide; mean ± SEM; read-out: Inverse Agonist Potency (Kb)
Procedure: (§1) Antibody-Capture SPA GTP-γ-^35S Binding
(§2) In cell membranes expressing human or rat CB1 or CB2 receptor, test (3R,5R)-3-[1-methyl-1-(6-trifluoromethyl-pyridin-3-yl)-ethylamino]-1-(4-trifluoromethyl-phenyl)-5-(3-trifluoromethoxy-phenyl)-pyrrolidin-2-one 4-methylbenzenesulfonate (referred to as “Example 2”) for its antagonist/inverse agonist functional GTP-binding. In a 96 well format using a modified antibody capture technique (DeLapp et al., 1999), measure GTP-γ^35S binding. Briefly incubate for 30 minutes at room temperature the GTP-binding assay buffer (20 mM Hepes, 100 mM NaCl, 5 mM MgCl2, pH 7.4), the CHO or Sf9 cell membranes expressing CB1 or CB2, (Applied Cell Sciences, Gaithersburg, Md.; PerkinElmer Life Sciences, Boston, Mass.; prepare membranes as previously described (DeLapp et al., 1999)), Example 2 and the 500 pM GTP-γ-^35S (PerkinElmer Life Sciences, Boston, Mass.). Perform antagonist dose responses in the presence of a saturating dose of a full agonist (methanandamide). […]
(§3) To analyze data, subtract background from all wells. […] Determine Kb values using a modification of the Cheng-Prusoff relationship: Kb=IC50/(1+[agonist]/EC50) where IC50 is determined from a four parameter fit of displacement curves, [agonist]=EC50 of full agonist, and EC50 is determined from a four parameter fit of a full agonist concentration response curve (Cheng and Prusoff 1973). […]

rat CB1 receptor = target: T1, rat CB1 receptor (Rattus norvegicus, UniProt P20272); experiment: Antibody-capture SPA GTP-γ-35S binding, antagonist/inverse agonist mode, rat CB1 (CHO membranes); assay type: biochemical; settings: Rat CB1 (CHO cells) membranes; vs saturating methanandamide; mean ± SEM; read-out: Inverse Agonist Potency (Kb)
T1 construct: purchased Applied Cell Sciences, Gaithersburg, Md; PerkinElmer Life Sciences, Boston, Mass; host or cells: CHO cells (recombinant expression), membranes
Procedure: as §1, §2, §3

human CB2 receptor = target: T2, human CB2 receptor (Homo sapiens, UniProt P34972); experiment: Antibody-capture SPA GTP-γ-35S binding, antagonist/inverse agonist mode, human CB2 (Sf9 membranes); assay type: biochemical; settings: Human CB2 (Sf9 cells) membranes, Table 1
T2 construct: purchased Applied Cell Sciences, Gaithersburg, Md; PerkinElmer Life Sciences, Boston, Mass; host or cells: Sf9 insect cells (recombinant expression), membranes

Male Sprague Dawley rats = experiment: cFos activation in rat brain, alone and with clozapine; assay type: in vivo
Excerpt: Characterize Example 2 for its ability to activate gene expression and neurochemical efflux in cortical and subcortical regions and to interact with the prototypical atypical antipsychotic agent clozapine.
Methods: House Male Sprague Dawley rats (155-175 g) for 1 week prior to experimentation. Prepare Example 2 in a vehicle suspension of 1% Sodium carboxymethyl cellulose, 0.5% Sodium lauryl sulfate, 0.05% Antifoam, 0.085% Povidone and administer, to rats (e.g., male Sprague Dawley rats, 155-175 g) p.o. (a dose of 1 or 10 mg/kg). Control rats receive vehicle. Administer clozapine (Sigma) 1 hour later at a concentration of 8 mg/mL in a vehicle solution of 0.4% lactic acid at a dose of 8 mg/kg s.c. Sacrifice animals (n=7-8 per group) by decapitation 2 hours after administration of clozapine or vehicle for clozapine. Remove rapidly whole brains and immediately immerse in isopentane (2-methyl butane) over dry ice. Cut coronal sections through the prefrontal cortex (PFC), nucleus accumbens (NAc) and dorsolateral striatum (DL-Str) at 14 μm and perform Fos immunohistochemistry. Assess atypicality index (Robertson et al., 1994) using the following formula: Atypical Index=(NAcD−NAcV)−(DL-StrD−DL-StrV) where the average number of Fos-li neurons in NAc=nucleus accumbens, D=drug, V=vehicle, DL-Str=dorsolateral striatum. Analyze data using a one-way ANOVA followed by Newman-Keul's post hoc test (Graph Pad Prism 4.03). Set the level of significance at P<0.05.

[1] = test system: alcohol-preferring (P) rats; experiment: 12-hour ethanol consumption in alcohol-preferring rats (P rats); assay type: in vivo, rat; settings: female P rats, 15% (v/v) ethanol, continuous free access; Example 2 given p.o.
Excerpt: Evaluate Example 2 for its ability to reduce consumption of ethanol in rats selectively bred for high oral ethanol intake (P rats). In addition, study the effects of Example 2 under conditions in which effects of the compound on motivation or the control of behavior by ethanol could be assessed.
Methods: Study the effects of Example 2 on female, alcohol-preferring (P) rats on alcohol consumption under a continuous free access paradigm. For comparative purposes test the standard opioid antagonist naltrexone. Monitor voluntary consumption of 15% (v/v) ethanol. Suspend Example 2 in vehicle (1% CMC, 0.5% SLS, 0.08% povidone, 0.05% Dow Corning antifoam 1510 US) and give p.o. 3 hours prior to the onset of the dark cycle. In addition, measure locomotor activity via infrared sensor.

[2] = test system: alcohol-preferring (P) rats; experiment: Progressive ratio responding maintained by ethanol; assay type: in vivo, rat; settings: female P rats, progressive ratio schedule
Excerpt: Assess the ability of Example 2 to reduce the motivational drive controlling ethanol intake.
Methods: Study female alcohol-preferring (P) rats under a progressive ratio schedule in which responding produces 15% ethanol (v/v). Under the progressive ratio schedule, the response requirement for ethanol delivery increases from 1 to 2 and then increments by 2 after 3 ethanol presentations.

[3] = test system: female Sprague-Dawley rats; experiment: Atypical antipsychotic (olanzapine) weight gain model; assay type: in vivo, rat; settings: 0.3 and 1 mg/kg Example 2 plus olanzapine, days 15-28
Excerpt: Methods: Maintain adult lean, female Sprague-Dawley rats ad libitum on normal rodent chow Purina LabDiet 5001 (12.3% fat) and water. […] Follow food intake, monitor body weight and change in fat mass over a two week treatment.

Sequence of hCB1 (P21554 whole entry): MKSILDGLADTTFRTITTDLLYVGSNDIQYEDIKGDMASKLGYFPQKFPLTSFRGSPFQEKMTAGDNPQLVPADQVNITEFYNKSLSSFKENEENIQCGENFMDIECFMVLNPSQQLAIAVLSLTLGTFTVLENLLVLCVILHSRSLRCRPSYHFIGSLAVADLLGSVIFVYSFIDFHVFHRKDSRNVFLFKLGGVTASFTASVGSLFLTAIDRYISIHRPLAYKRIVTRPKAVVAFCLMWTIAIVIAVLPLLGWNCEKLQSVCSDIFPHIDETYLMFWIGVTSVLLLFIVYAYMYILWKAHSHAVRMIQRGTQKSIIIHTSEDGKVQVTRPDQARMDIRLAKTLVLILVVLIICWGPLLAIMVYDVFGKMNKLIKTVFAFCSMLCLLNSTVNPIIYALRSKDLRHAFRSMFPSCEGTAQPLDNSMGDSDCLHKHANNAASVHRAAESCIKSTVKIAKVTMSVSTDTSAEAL
T1 sequence (P20272 whole entry): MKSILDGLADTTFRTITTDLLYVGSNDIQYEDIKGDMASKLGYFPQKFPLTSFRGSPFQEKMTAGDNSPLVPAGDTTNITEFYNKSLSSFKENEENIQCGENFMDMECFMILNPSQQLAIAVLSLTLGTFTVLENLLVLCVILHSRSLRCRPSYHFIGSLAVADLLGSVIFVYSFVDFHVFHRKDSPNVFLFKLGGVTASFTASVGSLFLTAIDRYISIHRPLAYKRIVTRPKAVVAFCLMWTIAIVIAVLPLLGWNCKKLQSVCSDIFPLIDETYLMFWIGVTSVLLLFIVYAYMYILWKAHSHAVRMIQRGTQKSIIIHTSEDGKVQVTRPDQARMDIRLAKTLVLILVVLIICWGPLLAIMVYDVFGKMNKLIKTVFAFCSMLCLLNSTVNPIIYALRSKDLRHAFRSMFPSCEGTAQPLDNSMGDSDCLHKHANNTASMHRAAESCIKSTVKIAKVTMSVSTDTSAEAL
T2 sequence (P34972 whole entry): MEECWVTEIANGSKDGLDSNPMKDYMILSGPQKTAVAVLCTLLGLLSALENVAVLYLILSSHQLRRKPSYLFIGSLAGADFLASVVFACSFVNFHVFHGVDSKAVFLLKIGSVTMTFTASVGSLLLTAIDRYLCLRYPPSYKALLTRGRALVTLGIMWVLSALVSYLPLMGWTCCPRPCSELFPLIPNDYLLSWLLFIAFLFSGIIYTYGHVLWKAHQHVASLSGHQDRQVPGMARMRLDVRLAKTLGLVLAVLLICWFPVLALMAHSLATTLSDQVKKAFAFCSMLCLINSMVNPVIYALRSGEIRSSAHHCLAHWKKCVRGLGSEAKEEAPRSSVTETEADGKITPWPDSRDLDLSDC

- Kb (hCB1): 0.71 ± 0.26 nM
- Kb (rat CB1 receptor): 1.27 ± 0.2 nM
- Inverse Agonist Potency (Kb, nM) (human CB2 receptor): No measurable activity
Compound: CC(C)(N[C@@H]1C[C@H](c2cccc(OC(F)(F)F)c2)N(c2ccc(C(F)(F)F)cc2)C1=O)c1ccc(C(F)(F)F)nc1.Cc1ccc(S(=O)(=O)O)cc1 [Example 2, (3R,5R)-3-[1-methyl-1-(6-trifluoromethyl-pyridin-3-yl)-ethylamino]-1-(4-trifluoromethyl-phenyl)-5-(3-trifluoromethoxy-phenyl)-pyrrolidin-2-one, 4-methylbenzenesulfonate (1:1)]
- effect on clozapine-induced Fos reactivity (Male Sprague Dawley rats; 1 and 10 mg/kg p.o. given with clozapine 8 mg/kg s.c.): enhancing the effects of clozapine alone
- cortical and subcortical Fos reactivity, compound alone (Male Sprague Dawley rats; Example 2 1 or 10 mg/kg p.o.): tend to or significantly enhance cortical and subcortical Fos reactivity
- atypicality (ventral vs. dorsal striatal Fos impact) (Male Sprague Dawley rats; Example 2 added to clozapine): a neural signature of greater atypicality
- consumption of ethanol [1]: decreased in a dose-dependent manner
- ethanol-seeking behavior and ethanol consumed ([2]; 15% ethanol, dose-dependently): Reduce ethanol-seeking behavior and the consumption of ethanol consumed
- reduction of breakpoint ([2]; F(4,20)=4.52, p=0.009): in a dose-dependent manner
- fat free mass under olanzapine [3]: no changes in fat free mass
- fat mass gain under olanzapine [3]: significant reduction in fat mass gain
